Reference: PMC11044139, “Comparative Study of Toxic Terpenoidal Aldehydes and Lactone Derivatives from the European Polypore Bondarzewia mesenterica” (ACS Omega, 2024)
In brackets after ≈: the same amount, converted by molar mass. Several values for one entry are separate records, joined by “and”; a condition that tells them apart may be missing. Equal values may be shown once. Read-outs that look alike come from different tables or passages of the source.

Assays:
[1] = tested on: Pichia anomala (DSM 6766); test: Antimicrobial assay (MIC), P. anomala; assay type: cell-based
Method: (§1) The antimicrobial effects of the isolated compounds were determined using our established protocols.[19] Generally, an array of clinically relevant microorganisms consisting of bacteria, namely, S. aureus (DSM 346), A. baumanii (DSM 30008), B. subtilis (DSM 10), E. coli (DSM 1116), P. aeruginosa (PA14), C. violaceum (DSM 30191), and M. smegmatis (ATCC 700084), and fungi including M. hiemalis (DSM 2656), C. albicans (DSM 1665), R. glutinis (DSM 10134), S. pombe (DSM 70572), and P. anomala (DSM 6766), were used. […] The minimum inhibitory concentrations (MIC) were recorded after an overnight incubation as the lowest concentration under which no microbial growth was visualized. The microorganisms were obtained from the German Collection of Microorganisms and Cell Cultures (DSMZ, Braunschweig, Germany).

[2] = tested on: all tested cell lines; test: Cytotoxicity (MTT) assay, all tested cell lines; assay type: cell-based; conditions: for IC50: read-out: IC50 values, range against all tested cell lines
From the text: (§2) MTT (3-(4,5-dimethylthiayol-2-yl)-2,5-diphenyltetrazolium bromide)-based assay was used to determine in vitro cytotoxicity as previously reported.[24] The tested mammalian cell lines included mouse fibroblasts (L929), endocervical adenocarcinoma (KB3.1), human lung carcinoma (A549), breast adenocarcinoma (MCF-7), prostate carcinoma (PC-3), and epidermoid carcinoma cells (A431). Epothilone B was used as a positive control.

[3] = tested on: Chromobacterium violaceum (DSM 30191); test: Antimicrobial assay (MIC), C. violaceum; assay type: cell-based; conditions: overnight incubation, n.i. = no inhibition up to 67 μg/mL
Method: as §1

[4] = tested on: human prostate carcinoma (PC-3); test: Cytotoxicity (MTT) assay, PC-3; assay type: cell-based
From the text: as §2

[5] = tested on: Schizosaccharomyces pombe (DSM 70572); test: Antimicrobial assay (MIC), S. pombe; assay type: cell-based
Method: as §1

[6] = tested on: mouse fibroblast (L929); test: Cytotoxicity (MTT) assay, L929; assay type: cell-based; conditions: for IC50: Mus musculus, n.a. = no activity
From the text: as §2, with “(A431).” for “(A431). Epothilone B was used as a positive control.”

[7] = tested on: Staphylococcus aureus (DSM 346); test: Antimicrobial assay (MIC), S. aureus; assay type: cell-based
Method: as §1

[8] = design: method as in doi:10.1021/np50038a013; conditions: previous report; cited from earlier work
[9] = tested on: Mucor hiemalis (DSM 2656); test: Antimicrobial assay (MIC), M. hiemalis; assay type: cell-based
Method: as §1

[10] = tested on: Pseudomonas aeruginosa (PA14); test: Antimicrobial assay (MIC), P. aeruginosa; assay type: cell-based; conditions: overnight incubation, n.i. = no inhibition up to 67 μg/mL
Method: as §1

[11] = tested on: Escherichia coli (DSM 1116); test: Antimicrobial assay (MIC), E. coli; assay type: cell-based; conditions: overnight incubation, n.i. = no inhibition up to 67 μg/mL
Method: as §1

[12] = tested on: human endocervical adenocarcinoma (KB3.1); test: Cytotoxicity (MTT) assay, KB3.1; assay type: cell-based; conditions: for IC50: Homo sapiens, KB 3-1, n.a. = no activity
From the text: as §2, with “(A431).” for “(A431). Epothilone B was used as a positive control.”

[13] = tested on: human breast adenocarcinoma (MCF-7); test: Cytotoxicity (MTT) assay, MCF-7; assay type: cell-based
From the text: as §2

[14] = tested on: Candida albicans (DSM 1665); test: Antimicrobial assay (MIC), C. albicans; assay type: cell-based
Method: as §1

[15] = tested on: Mycobacterium smegmatis (ATCC 700084); test: Antimicrobial assay (MIC), M. smegmatis; assay type: cell-based
Method: as §1

[16] = tested on: human epidermoid carcinoma (A431); test: Cytotoxicity (MTT) assay, A431; assay type: cell-based
From the text: as §2

[17] = tested on: Bacillus subtilis (DSM 10); test: Antimicrobial assay (MIC), B. subtilis; assay type: cell-based
Method: as §1

[18] = tested on: Acinetobacter baumanii (DSM 30008); test: Antimicrobial assay (MIC), A. baumanii; assay type: cell-based; conditions: overnight incubation, n.i. = no inhibition up to 67 μg/mL
Method: as §1

[19] = tested on: human ovarian cancer (SKOV-3); test: Cytotoxicity (MTT) assay, SKOV-3; assay type: cell-based
[20] = tested on: Rhodotorula glutinis (DSM 10134); test: Antimicrobial assay (MIC), R. glutinis; assay type: cell-based
Method: as §1

[21] = tested on: human lung carcinoma (A549); test: Cytotoxicity (MTT) assay, A549; assay type: cell-based
From the text: as §2

[22] = tested on: P. anomala, M. hiemalis, and Rhodotorula glutinis; test: Antimicrobial assay (MIC), three fungi summarised in text; assay type: cell-based; conditions: range over three fungi
Method: as §1

[23] = SK-OV-3, SKOV-3, read-out: IC50
[24] = Pichia anomala, overnight incubation, n.i. = no inhibition up to 67 μg/mL
[25] = overnight incubation, n.i. = no inhibition up to 67 μg/mL
[26] = DSM346, overnight incubation, n.i. = no inhibition up to 67 μg/mL, read-out: MIC
[27] = Mycobacterium smegmatis, overnight incubation, n.i. = no inhibition up to 67 μg/mL
[28] = DSM2656, overnight incubation, n.i. = no inhibition up to 67 μg/mL, read-out: MIC
[29] = DSM10134, overnight incubation, n.i. = no inhibition up to 67 μg/mL, read-out: MIC

SMILES | MIC [3] | IC50 ([4]; PC-3, read-out: IC50) [µM] | IC50 [6] [µM] | MIC [10] | MIC [11] | IC50 [12] [µM] | IC50 ([13]; MCF7, MCF-7, read-out: IC50) [nM] | IC50 ([16]; A-431, A431, read-out: IC50) [µM] | MIC [18] | IC50 [19, 23] [µM] | IC50 ([21]; A549, read-out: IC50) [µM] | MIC [1, 24] | MIC [5, 25] | cytotoxicity (in words) [6] | MIC [7, 26] [µg/mL] | MIC [9, 25] | cytotoxicity (in words) [12] | MIC [14, 25] | MIC [15, 27] | MIC [17, 25] | also measured
CC1(C)CC2C=C(C=O)[C@]3(C=O)C[C@]3(C)C2C1 (single isomer, unassigned; (+)) [Compound 8, (+)-isovelleral] | n.i. | 3.9 | 10.3 | n.i. | n.i. | 10.3 | 2800 | 3.4 | n.i. | 5.2 | 30.2 |  |  |  |  |  |  |  |  |  | MIC ([1]; Hansenula anomala, DSM6766): 16.6 µg/mL (≈ 71.5 µM); IC50 [2]: 2.8 to 30.2 µM; MIC ([5]; DSM70572): 33.3 µg/mL (≈ 143 µM); MIC ([7]; DSM346): 33.3 µg/mL (≈ 143 µM); mutagenicity [8]: revealed mutagenicity; MIC ([9]; DSM2656): 8.3 µg/mL (≈ 35.7 µM); MIC ([14]; DSM1665): 33.3 µg/mL (≈ 143 µM); MIC ([15]; Mycolicibacterium smegmatis, ATCC700084): 33.3 µg/mL (≈ 143 µM); MIC ([17]; DSM10): 33.3 µg/mL (≈ 143 µM); MIC ([20]; DSM10134): 16.6 µg/mL (≈ 71.5 µM)
CC(C)=CCC(/C=C(\CO)CCO)C(=O)O (stereo not shown) [Compound 3, sterepinic acid A] | n.i. |  |  | n.i. | n.i. |  |  |  | n.i. |  |  | n.i. | n.i. | non-cytotoxic | 66.6 (≈ 292 µM) | n.i. | non-cytotoxic | n.i. | n.i. | n.i. | MIC [20, 25]: n.i.
C/C(=C\c1csc(C)n1)[C@@H]1C[C@@H]2O[C@]2(C)CCC[C@H](C)[C@H](O)[C@@H](C)C(=O)C(C)(C)[C@@H](O)CC(=O)O1 [epothilone B, Epothilone B, reference compound] |  |  |  |  |  |  |  |  |  |  |  |  |  |  |  |  |  |  |  |  | IC50 ([4]; PC-3, read-out: IC50, positive control epothilone B): 9e-05 µM; IC50 ([13]; MCF7, read-out: IC50, positive control epothilone B): 0.07 nM; IC50 ([16]; A-431, read-out: IC50, positive control epothilone B): 6e-05 µM; IC50 ([19]; SK-OV-3, read-out: IC50, positive control epothilone B): 9e-05 µM; IC50 ([21]; A549, read-out: IC50, positive control epothilone B): 5e-05 µM
CC(C)(O)[C@H]1C[C@H](CC2=CC(=O)OC2)C(=O)O1 [Compound 5, vibralactones Z2] | n.i. |  |  | n.i. | n.i. |  |  |  | n.i. |  |  | n.i. | n.i. | non-cytotoxic | 66.6 (≈ 277 µM) | n.i. | non-cytotoxic | n.i. | n.i. | n.i. | MIC [20, 25]: n.i.
CC(C)=CCc1cc(C=O)ccc1O [Compound 9, 4-hydroxy-3(3-methylbut-2-enyl)benzaldehyde] | n.i. |  |  | n.i. | n.i. |  |  |  | n.i. |  |  |  | n.i. |  |  |  |  | n.i. | n.i. | n.i. | MIC ([1]; Hansenula anomala, DSM6766, Pichia anomala, overnight incubation, n.i. = no inhibition up to 67 μg/mL, read-out: MIC): 33.3 µg/mL (≈ 175 µM); cytotoxic effects (in words) ([2]; tested cell lines): no apparent cytotoxic effects; MIC [7, 25]: n.i.; MIC [9, 28]: 66.6 µg/mL (≈ 350 µM); MIC values, range against P. anomala, M. hiemalis, and Rhodotorula glutinis [22]: 33.3 to 66.6 µg/mL; MIC [20, 29]: 66.6 µg/mL (≈ 350 µM)
CC(=O)O[C@@H]1CC2C3=C(C(C)C)CC[C@]3(C)CC[C@@]2(C)[C@@H](OC2OC[C@@H](O)[C@H](O)[C@H]2O)C=C1C=O (stereo partly shown) [Compound 7, erinacine P] | n.i. | 4.9 | 13 | n.i. | n.i. | 5.1 | 3300 | 3.5 | n.i. | 7.7 | 14.2 | n.i. | n.i. |  | 66.6 (≈ 135 µM) |  |  | n.i. | n.i. |  | IC50 ([2]; range over all tested cell lines): 3.3 to 14.2 µM and 3.5 to 14.2 µM; MIC [9, 28]: 66.6 µg/mL (≈ 135 µM); MIC ([17]; DSM10, overnight incubation, n.i. = no inhibition up to 67 μg/mL, read-out: MIC): 33.3 µg/mL (≈ 67.6 µM); MIC [20, 29]: 16.6 µg/mL (≈ 33.7 µM)
